Values joined by “and” are separate entries in the source; they are usually repeats but may differ in a detail not shown here. Equal entries are not always repeated. Oligonucleotides are written 5' to 3', each unit as a sugar letter and its base; * is a phosphorothioate linkage, no mark a phosphodiester; rarer units and linkages stand in square brackets, end groups in braces. Plain capitals give the bases only. d = 2'-deoxy (DNA)

Data set [1] concerns the target T1, CD44-HABD (Homo sapiens, UniProt P16070).
T1 construct: DNA encoding CD44-HABD (amino acid residues 20-178) was synthesized and cloned into expression vector pET19b; made in house
As to the kind of experiment: Filter binding assay of biotinylated XAs with CD44-HABD. As to the method: Filter binding assay. The equilibrium binding constants of selected XAs for CD44-HABD were determined by a filter binding assay. The biotinylated XAs (1 nM) were incubated with varying concentrations of CD44-HABD in 50 μL of 20 mM Tris, pH 8.0, 150 mM NaCl for 40 min at room temperature and then transferred to a 96-well dot-blot apparatus and filtered under vacuum onto nitrocellulose membranes, which retain the CD44-HABD along with any bound XAs. The amount of biotinylated XA retained at each spot was determined by chemiluminescent detection using the Chemiluminescent Nucleic Acid Detection Module (Thermo Scientific) following the manufacturer's instructions. The chemiluminescent signals were collected on a Chemimager (Alpha Innotech). Image analysis and quantification of spot intensities were performed using ImageJ (version 1.42q). Binding analysis was based on the spot intensities on the nitrocellulose membranes with subtraction of background spot intensity due to the buffer effect from all the data points. Saturation binding curves were generated by using GraphPad Prism with curve fits assuming a single binding site. The NH2 XA column lists KDs for XAs where X=amino-dU. The ADDA XA column lists KDs for XAs where X=ADDA-dU.
The equilibrium binding constants of the small constructs were determined by the filter binding assay. The derived equilibrium binding constants of the above small XA constructs are shown below in Table 4.

The target of data set [2] is T1, CD44-HABD. As to the kind of experiment: 1H-NMR titration of CD44-HABD with ADDA (equilibrium dissociation constant). In kind it is binding. As to the method:
ADDA binding to CD44-HABD. CD44-HABD was prepared in the NMR buffer (20 mM Tris, 50 mM NaCl, 5% (v/v) D2O, pH 6.7). ADDA was dissolved in DMSO (1.4 M) as stock solution. The ADDA sample for NMR was prepared in the same buffer (20 mM Tris, 50 mM NaCl, 1.25 mM ADDA, 0.1% (v/v) DMSO, 5% (v/v) D2O, pH 6.7). CD44-HABD (27 μM) with various concentration of ADDA (14 μM, 25 μM, 50 μM, 250 μM and 1250 μM) was also prepared in the same buffer. The ^1H-NMR spectra of CD44-HABD only, ADDA only and CD44-HABD in presence of ADDA were obtained.
The equilibrium dissociation constant of ADDA to CD44-HABD was determined by ^1H-NMR.

In data set [3] the test system is human pancreatic cancer xenograph. As to the kind of experiment: Near infrared imaging of IR800dye-labeled thioaptamer in mouse xenograft. It counts as in vivo. As to conditions: mouse with human pancreatic cancer xenograph. The source says:
Use of Thioaptamers in vivo.

The mark [4] stands for this setting: permonothioated full-length XA, X = ADDA-dU, read-out: KD (nM) ADDA XA.
[5] abbreviates: permonothioated full-length XA, X = amino-dU, read-out: KD (nM) NH2 XA.

T1 sequence (P16070 20-178): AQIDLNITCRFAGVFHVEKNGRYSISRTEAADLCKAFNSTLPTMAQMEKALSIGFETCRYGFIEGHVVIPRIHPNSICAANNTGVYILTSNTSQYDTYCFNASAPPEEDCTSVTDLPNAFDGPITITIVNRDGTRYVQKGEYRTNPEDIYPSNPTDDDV

As to “1 (DNA AAGGGAACCAAGGACACTAC; DNA, backbone not given here; tested as phosphodiester and as thiophosphate form) [Motif 1]”, the Kd with CD44-HABD [1] (truncated motif without X, phosphate backbone, read-out: Dissociation constant (nM), phosphoaptamer form) amounted to 10.3 ± 1.3 nM; with CD44-HABD [1] (truncated motif without X, thiophosphate backbone, read-out: Dissociation constant (nM), thioaptamer form), 15 ± 2 nM.

As for `CC(=O)N[C@H]1[C@H]([C@H](O)[C@H](O)CO)OC(C(=O)O)=C[C@@H]1O` [ADDA, N-acetyl-2,3-dehydro-2-deoxyneuraminic acid], the Kd on CD44-HABD [2] (1H-NMR peak 7.7925 ppm, read-out: KD) was determined as 3.08 mM; at CD44-HABD [2] (1H-NMR peak 7.9025 ppm, read-out: KD) it was 1.44 mM; on CD44-HABD [2] (1H-NMR peak 7.9225 ppm, read-out: KD), 1.72 mM; at CD44-HABD [2] (1H-NMR peak 7.9375 ppm, read-out: KD), 1.92 mM; at CD44-HABD [2] (1H-NMR peak 7.9575 ppm, read-out: KD), 1.71 mM; at CD44-HABD [2] (1H-NMR peak 7.9925 ppm, read-out: KD), 3.43 mM. Besides, the Kd at CD44-HABD [2] (average over the six selected 1H-NMR peaks, read-out: Average KD) is 2.22 mM and ~2 mM.

“XA2: permonothioated X-aptamer to CD44-HABD, SEQ ID NO 13; X = amino-dU or ADDA-dU (DNA NGCAGATCTGCAAGGGAACCAAGGACACTA; phosphorothioate; amino-dU or ADDA-dU modified; (1)..(1) n = X = 5-(aminoethyl-3-acrylimido)- deoxyuridine)”: the Kd in the data set with CD44-HABD [1] (setting [4]) came to 78.3 ± 18.1 nM; with CD44-HABD [1] (setting [5]) it was 55.5 ± 13.4 nM.

Turning to “XA3: permonothioated X-aptamer to CD44-HABD, SEQ ID NO 14; X = amino-dU or ADDA-dU (DNA CCAAGGCCTGCAAGGGAACCAAGTCCANTA; phosphorothioate; amino-dU or ADDA-dU modified; (28)..(28) n = X = 5-(aminoethyl-3-acrylimido)- deoxyuridine)”, the Kd with CD44-HABD [1] (setting [4]) worked out at 140 ± 16.8 nM; with CD44-HABD [1] (setting [5]), 111 ± 18.5 nM.

Turning to “XA6: permonothioated X-aptamer to CD44-HABD, SEQ ID NO 17; X = amino-dU or ADDA-dU (DNA TTGGGGCCTGCAAGACGACCNAAACGANGA; phosphorothioate; amino-dU or ADDA-dU modified; (21)..(21) n = X = 5-(aminoethyl-3-acrylimido)- deoxyuridine; (28)..(28) n = X = 5-(aminoethyl-3-acrylimido)- deoxyuridine)”, the Kd in the data set with CD44-HABD [1] (setting [4]) amounted to 150 ± 25.7 nM; with CD44-HABD [1] (setting [5]), 214 ± 31.6 nM.

On to “XA7: permonothioated X-aptamer to CD44-HABD, SEQ ID NO 18; X = amino-dU or ADDA-dU (DNA NNAAGACGCANTAANGAACCAAGGACGTGA; phosphorothioate; amino-dU or ADDA-dU modified; (1)..(2) n = X = 5-(aminoethyl-3-acrylimido)- deoxyuridine; (11)..(11) n = X = 5-(aminoethyl-3-acrylimido)- deoxyuridine; (15)..(15) n = X = 5-(aminoethyl-3-acrylimido)- deoxyuridine)”, for which the Kd in the data set with CD44-HABD [1] (setting [4]) stood at 116 ± 20.7 nM; in the data set with CD44-HABD [1] (setting [5]), 306 ± 69.3 nM.

As to “XA8: permonothioated X-aptamer to CD44-HABD, SEQ ID NO 19; X = amino-dU or ADDA-dU (DNA CCAAGATCNGNAAGGTANCCGGGGACNG; phosphorothioate; amino-dU or ADDA-dU modified; (9)..(9) n = X = 5-(aminoethyl-3-acrylimido)- deoxyuridine; (11)..(11) n = X = 5-(aminoethyl-3-acrylimido)- deoxyuridine; (18)..(18) n = X = 5-(aminoethyl-3-acrylimido)- deoxyuridine; (27)..(27) n = X = 5-(aminoethyl-3-acrylimido)- deoxyuridine)”, the Kd in the data set with CD44-HABD [1] (setting [4]) is 274 ± 54.3 nM; in the data set with CD44-HABD [1] (setting [5]), 463 ± 82.4 nM.

Turning to “XA10: permonothioated X-aptamer to CD44-HABD, SEQ ID NO 21; X = amino-dU or ADDA-dU (DNA dT*dT*dG*dG*dG*dG*dC*dC*dC*dA*dG*dT*dA*dG*dG*dT*dA*dA*dC*dC*dG*dG*dG*dG*dA*dC*dA*dG; further chemistry not given here)”, in the data set with CD44-HABD [1] (setting [5]), the Kd turned out to be 450 ± 180 nM.

With “XA11: permonothioated X-aptamer to CD44-HABD, SEQ ID NO 22; X = amino-dU or ADDA-dU (DNA TTGGGACGTAAGTAANGGGGGACANGA; phosphorothioate; amino-dU or ADDA-dU modified; (16)..(16) n = X = 5-(aminoethyl-3-acrylimido)- deoxyuridine; (25)..(25) n = X = 5-(aminoethyl-3-acrylimido)- deoxyuridine)”, the Kd amounted to 1090 ± 390 nM with CD44-HABD [1] (setting [4]) and 846 ± 151 nM with CD44-HABD [1] (setting [5]).

For “XA12: permonothioated X-aptamer to CD44-HABD, SEQ ID NO 23; X = amino-dU or ADDA-dU (DNA NNAAGGCCNGNTAAANGATATCCACTA; phosphorothioate; amino-dU or ADDA-dU modified; (1)..(2) n = X = 5-(aminoethyl-3-acrylimido)- deoxyuridine; (9)..(9) n = X = 5-(aminoethyl-3-acrylimido)- deoxyuridine; (11)..(11) n = X = 5-(aminoethyl-3-acrylimido)- deoxyuridine; (16)..(16) n = X = 5-(aminoethyl-3-acrylimido)- deoxyuridine)”, the Kd worked out at 879 ± 135 nM with CD44-HABD [1] (setting [4]) and 963 ± 183 nM with CD44-HABD [1] (setting [5]).

On to “XA13: permonothioated X-aptamer to CD44-HABD, SEQ ID NO 24; X = amino-dU or ADDA-dU (DNA NGCAGATCTGCAAGGGAAAGATAGACACAG; phosphorothioate; amino-dU or ADDA-dU modified; (1)..(1) n = X = 5-(aminoethyl-3-acrylimido)- deoxyuridine)”, for which the Kd with CD44-HABD [1] (setting [4]) was 312 ± 68.5 nM; in the data set with CD44-HABD [1] (setting [5]), 1380 ± 237 nM.

B1: ESTA-1: ESTA-1 thioaptamer sequence (SEQ. ID. 32), IRdye 800-labelled, gold nanoparticle (FIG. 16) (nucleic acid)
DNA: CGCTCGGATCGATAAGCTTCGATCCCACTCTCCCGTTCACTTCTCCTCACGTCACGGATCCTCTAGAGCACTG
modifications: Thioaptamer, thioate positions not given here, IRdye 800 label, gold nanoparticle conjugate
On to B1, for which the “accumulation in tumor (near infrared image)” value in data set [3] is given as “accumulates in the tumor”.

These data come from patent US9988623B2, “Methods of X-aptamer generation and compositions thereof” (Board of Regents of the University of Texas System, priority 2012, dated 2018).
